Assay results as given in BindingDB's records for doi:10.1007/s002100000312 (Biocentre Niederursel, 2000).

Experiments:
P2X purinoceptor 4 = molecular target: T1, P2X purinoceptor 4 (Homo sapiens, UniProt Q99571)
T1 sequence (Q99571 whole entry): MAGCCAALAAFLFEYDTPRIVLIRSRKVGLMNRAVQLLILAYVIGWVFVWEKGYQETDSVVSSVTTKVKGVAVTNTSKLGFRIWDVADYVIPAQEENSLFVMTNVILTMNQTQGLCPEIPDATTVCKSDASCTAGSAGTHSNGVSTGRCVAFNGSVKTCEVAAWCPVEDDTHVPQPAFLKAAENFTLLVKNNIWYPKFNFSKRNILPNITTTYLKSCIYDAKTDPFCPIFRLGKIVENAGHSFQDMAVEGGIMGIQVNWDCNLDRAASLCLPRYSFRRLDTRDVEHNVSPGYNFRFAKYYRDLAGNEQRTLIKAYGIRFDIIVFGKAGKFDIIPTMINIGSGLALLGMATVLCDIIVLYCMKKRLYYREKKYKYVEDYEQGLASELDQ

P2X purinoceptor 1 [1] = molecular target: T2, P2X purinoceptor 1 (Rattus norvegicus, UniProt P47824)
T2 sequence (P47824 whole entry): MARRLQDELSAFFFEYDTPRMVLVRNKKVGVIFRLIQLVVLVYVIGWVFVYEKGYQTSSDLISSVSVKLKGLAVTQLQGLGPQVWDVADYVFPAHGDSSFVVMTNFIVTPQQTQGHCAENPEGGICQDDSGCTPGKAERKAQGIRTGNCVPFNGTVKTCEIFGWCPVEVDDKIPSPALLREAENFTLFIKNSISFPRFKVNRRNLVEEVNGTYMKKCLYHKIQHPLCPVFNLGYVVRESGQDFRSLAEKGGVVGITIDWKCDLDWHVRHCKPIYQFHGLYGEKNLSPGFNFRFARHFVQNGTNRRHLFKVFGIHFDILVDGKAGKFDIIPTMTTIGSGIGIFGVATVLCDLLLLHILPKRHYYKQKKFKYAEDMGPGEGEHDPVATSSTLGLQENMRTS

P2X purinoceptor 2 = molecular target: T3, P2X purinoceptor 2 (Rattus norvegicus, UniProt P49653)
T3 sequence (P49653 whole entry): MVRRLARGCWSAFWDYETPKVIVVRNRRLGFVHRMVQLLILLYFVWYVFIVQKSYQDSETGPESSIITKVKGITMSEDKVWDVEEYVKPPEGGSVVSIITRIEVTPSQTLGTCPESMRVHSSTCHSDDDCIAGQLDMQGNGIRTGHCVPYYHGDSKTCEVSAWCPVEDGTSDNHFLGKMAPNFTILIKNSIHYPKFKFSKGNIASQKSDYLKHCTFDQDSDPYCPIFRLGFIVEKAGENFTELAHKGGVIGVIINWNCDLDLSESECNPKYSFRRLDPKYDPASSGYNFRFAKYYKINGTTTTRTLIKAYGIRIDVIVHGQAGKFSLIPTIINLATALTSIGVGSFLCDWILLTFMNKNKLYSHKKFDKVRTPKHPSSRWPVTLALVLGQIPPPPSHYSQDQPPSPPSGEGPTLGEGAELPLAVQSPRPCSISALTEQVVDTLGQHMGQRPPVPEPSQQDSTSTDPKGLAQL

P2X purinoceptor 1 [2] = molecular target: T4, P2X purinoceptor 1 (Homo sapiens, UniProt P51575)
T4 sequence (P51575 whole entry): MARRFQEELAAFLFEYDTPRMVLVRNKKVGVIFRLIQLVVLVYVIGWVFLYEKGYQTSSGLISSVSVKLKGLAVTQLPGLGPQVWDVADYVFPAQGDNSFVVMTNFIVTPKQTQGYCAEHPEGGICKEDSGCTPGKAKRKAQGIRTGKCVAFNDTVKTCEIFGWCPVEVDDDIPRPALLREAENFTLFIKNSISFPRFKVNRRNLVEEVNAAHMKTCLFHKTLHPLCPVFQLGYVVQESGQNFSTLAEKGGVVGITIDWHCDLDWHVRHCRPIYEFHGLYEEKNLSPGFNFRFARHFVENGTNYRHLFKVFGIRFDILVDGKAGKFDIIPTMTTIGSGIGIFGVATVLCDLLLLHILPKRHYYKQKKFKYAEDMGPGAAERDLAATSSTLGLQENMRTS

P2X purinoceptor 3 = molecular target: T5, P2X purinoceptor 3 (Rattus norvegicus, UniProt P49654)
T5 sequence (P49654 whole entry): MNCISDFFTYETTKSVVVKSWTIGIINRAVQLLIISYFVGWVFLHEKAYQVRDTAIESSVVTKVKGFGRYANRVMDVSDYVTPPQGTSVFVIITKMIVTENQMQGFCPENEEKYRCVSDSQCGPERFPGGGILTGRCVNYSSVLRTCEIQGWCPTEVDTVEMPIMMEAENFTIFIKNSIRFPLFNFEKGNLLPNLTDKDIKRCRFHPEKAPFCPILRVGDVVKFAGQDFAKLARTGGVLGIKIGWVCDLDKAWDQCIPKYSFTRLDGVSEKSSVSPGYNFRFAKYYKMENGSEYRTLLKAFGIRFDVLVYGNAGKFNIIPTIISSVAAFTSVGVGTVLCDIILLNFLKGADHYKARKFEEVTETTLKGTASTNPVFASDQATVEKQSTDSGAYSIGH

P2X purinoceptor 7 = molecular target: T6, P2X purinoceptor 7 (Homo sapiens, UniProt Q99572)
T6 sequence (Q99572 whole entry): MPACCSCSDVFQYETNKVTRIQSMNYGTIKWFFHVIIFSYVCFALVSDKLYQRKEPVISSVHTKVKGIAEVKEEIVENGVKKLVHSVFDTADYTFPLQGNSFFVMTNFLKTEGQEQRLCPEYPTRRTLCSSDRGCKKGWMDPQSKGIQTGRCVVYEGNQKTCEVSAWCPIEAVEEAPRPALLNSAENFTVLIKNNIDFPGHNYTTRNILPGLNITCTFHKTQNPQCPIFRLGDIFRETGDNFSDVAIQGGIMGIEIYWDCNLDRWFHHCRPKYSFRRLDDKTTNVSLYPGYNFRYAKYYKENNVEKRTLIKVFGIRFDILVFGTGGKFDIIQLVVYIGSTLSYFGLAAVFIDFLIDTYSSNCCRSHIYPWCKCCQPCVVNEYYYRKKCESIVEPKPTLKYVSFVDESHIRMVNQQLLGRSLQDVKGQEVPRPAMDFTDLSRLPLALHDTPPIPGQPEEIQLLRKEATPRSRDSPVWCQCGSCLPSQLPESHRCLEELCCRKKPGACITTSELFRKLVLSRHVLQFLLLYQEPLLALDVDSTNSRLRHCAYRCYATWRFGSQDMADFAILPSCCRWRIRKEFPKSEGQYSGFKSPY

| Structure (SMILES) | Ki (P2X purinoceptor 4) [nM] | Ki (P2X purinoceptor 1 [1]) [nM] | Ki (P2X purinoceptor 2) [nM] | Ki (P2X purinoceptor 1 [2]) [nM] | Ki (P2X purinoceptor 3) [nM] | Ki (P2X purinoceptor 7) [nM] |
| --- | --- | --- | --- | --- | --- | --- |
| O=C(Nc1ccc(C(=O)Nc2ccc(C(=O)Nc3ccc(S(=O)(=O)O)c4cc(S(=O)(=O)O)cc(S(=O)(=O)O)c34)cc2)cc1)Nc1ccc(C(=O)Nc2ccc(C(=O)Nc3ccc(S(=O)(=O)O)c4cc(S(=O)(=O)O)cc(S(=O)(=O)O)c34)cc2)cc1 [CAS_5311315] | > 10000 | 1000 | > 10000 | 1000 | 1000 | > 10000 |
| O=C(Nc1cccc(Nc2ccc(S(=O)(=O)O)c3cc(S(=O)(=O)O)cc(S(=O)(=O)O)c23)c1)Nc1cccc(Nc2ccc(S(=O)(=O)O)c3cc(S(=O)(=O)O)cc(S(=O)(=O)O)c23)c1 [NSC_5311313] | > 10000 | 1000 | > 10000 |  | 1000 |  |
| Cc1ccc(C(=O)Nc2ccc(S(=O)(=O)O)c3cc(S(=O)(=O)O)cc(S(=O)(=O)O)c23)cc1NC(=O)c1cccc(NC(=O)Nc2cccc(C(=O)Nc3cc(C(=O)Nc4ccc(S(=O)(=O)O)c5cc(S(=O)(=O)O)cc(S(=O)(=O)O)c45)ccc3C)c2)c1 [suramin] | 5000 | 50 | > 10000 |  | > 10000 |  |
